Read-outs that look alike come from different tables or passages of the source.

In assay [1] the target is T1, CYP17A1_WT (Homo sapiens, UniProt P05093).
T1 sequence (P05093 1-508): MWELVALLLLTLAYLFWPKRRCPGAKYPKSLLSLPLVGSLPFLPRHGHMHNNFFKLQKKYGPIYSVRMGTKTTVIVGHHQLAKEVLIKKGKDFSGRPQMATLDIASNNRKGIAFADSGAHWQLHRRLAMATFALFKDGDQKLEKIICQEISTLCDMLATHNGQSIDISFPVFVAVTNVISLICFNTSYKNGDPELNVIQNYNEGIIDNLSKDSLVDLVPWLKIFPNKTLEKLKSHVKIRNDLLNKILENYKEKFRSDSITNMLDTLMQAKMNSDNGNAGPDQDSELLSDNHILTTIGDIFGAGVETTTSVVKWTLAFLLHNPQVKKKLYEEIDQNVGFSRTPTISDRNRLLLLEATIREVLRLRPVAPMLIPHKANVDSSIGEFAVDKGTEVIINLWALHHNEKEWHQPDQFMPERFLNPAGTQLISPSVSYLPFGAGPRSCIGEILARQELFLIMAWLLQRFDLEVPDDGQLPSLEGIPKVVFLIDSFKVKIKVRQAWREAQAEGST
The assay can be described thus: Spectral substrate/inhibitor-binding assay, WT CYP17A1. To be noted: 50 nM protein, 22 °C. Here is the method: Binding of steroid substrates to CYP17A1 was measured by recording the substrate-binding spectra in the range of 340–500 nm on a Perkin Elmer Lambda 25 spectrophotometer. A change in heme absorbance is observed when water molecules at the active site are replaced by steroid substrates. […] To accurately measure the tight binding substrates and inhibitors, a cuvette with 100 mm path length was employed and protein concentration was kept at 50 nM. […] All substrates and abiraterone were dissolved in ethanol and an equal amount of ethanol was added to the reference cuvette and the final concentration of ethanol added to the cuvettes was kept below 2%. After each addition of the compounds, cuvettes were incubated for 5 min at 22 °C before recording the spectra. […] Data were fitted with GraphPad Prism based on the tight binding pattern of substrates to a single binding site.

For assay [2], the target named is T1, CYP17A1_WT. The assay can be described thus: Inhibition of PROG 17α-hydroxylation, WT CYP17A1. In kind it is biochemical.
Protocol: (§1) To assess 17α-hydroxylase activity, 10 pmol of CYP17A1 along with 20 pmol purified human POR [17, 31, 32, 34, 62] […] Enzyme kinetic calculations were performed using non-linear regression curve fitting with Prism (GraphPad Software Inc., San Diego, CA, USA). Data represent the mean of three independent experiments.
The test system of assay [3] is T2, CYP17A1 WT.
T2 construct: (His)4; made in house; host or cells: E. coli JM109
The assay can be described thus: 17α-hydroxylase enzyme kinetics (PROG to 17OH-PROG), WT CYP17A1. It counts as biochemical, human.
Protocol: as §1

In assay [4] the test system is CYP17A1 WT. Particulars: 17OH-PREG as substrate, with cytochrome b5.

On to `C[C@]12CC[C@H](O)CC1=CC[C@@H]1[C@@H]2CC[C@]2(C)C(c3cccnc3)=CC[C@@H]12` [Abiraterone, abiraterone], for which the Kd in assay [1] (read-out: Kd) worked out at 85 ± 23 nM. Also, the IC50 in assay [2] was 40 ± 10 nM.

On to `CC(=O)[C@H]1CC[C@H]2[C@@H]3CC=C4C[C@@H](O)CC[C@]4(C)[C@H]3CC[C@]12C` [PREG, pregnenolone], for which, in assay [1] (read-out: Kd), the Kd came to 62 ± 17 nM. The compound also displayed an IC50 in assay [2] of 900 ± 150 nM.

Take `CC(=O)[C@H]1CC[C@H]2[C@@H]3CCC4=CC(=O)CC[C@]4(C)[C@H]3CC[C@]12C` [PROG, Progesterone]: the Kd in assay [1] (read-out: Kd) turned out to be 163 ± 29 nM. Also, the “Vmax, 17α-Hydroxylase PROG to 17OH-PROG” value in assay [3] (PROG as substrate) worked out at 0.71 min⁻¹. Further, the Km in assay [3] (read-out: Km, 17α-Hydroxylase PROG to 17OH-PROG, PROG as substrate, CYP17A1:POR 1:2, 37 °C) is 6.1 ± 0.7 µM. For the same compound, in assay [3] (relative to WT), the “Cat Eff, 17α-Hydroxylase PROG to 17OH-PROG” value was determined as 100%.

Compound `CC(=O)[C@@]1(O)CC[C@H]2[C@@H]3CC=C4C[C@@H](O)CC[C@]4(C)[C@H]3CC[C@@]21C` [17OH-PREG, 17α-hydroxypregnenolone] displayed a Kd in assay [1] (Kd) of 142 ± 38 nM. This compound also registered an IC50 in assay [2] of 1700 ± 200 nM. The “Vmax, 17,20 Lyase 17OH-PREG to DHEA” value in assay [4] came out at 0.025 ± 0.004 min⁻¹. For the same compound, the Km in assay [4] (read-out: Km, 17,20 Lyase 17OH-PREG to DHEA) is 920 ± 70 nM.

Usually Kd stands for the equilibrium constant for the complex coming apart. One may read the IC50 as the midpoint of a concentration-inhibition curve. One may read the Km as the substrate concentration at which the rate is half of its maximum.

The values are drawn from paper PMC6027421 (Pharmaceuticals, 2018).
